Experimental data taken from ChEMBL document CHEMBL2146461, “Synthesis and antiplasmodial activity of new heteroaryl derivatives of 7-chloro-4-aminoquinoline” (Bioorg Med Chem, 2012).

Experiments:
Plasmodium falciparum [1] = assay: Antiplasmodial activity against chloroquine-sensitive Plasmodium falciparum D10 infected in human red blood cells after 72 hrs by parasite lactate dehydrogenase assay; type: functional, organism-based; details: D10, 72 h
Plasmodium falciparum [2] = assay: Ratio of chloroquine IC50 to compound IC50 for chloroquine-sensitive Plasmodium falciparum D10; type: functional
Plasmodium falciparum [3] = assay: Antiplasmodial activity against chloroquine-resistant Plasmodium falciparum W2 infected in human red blood cells after 72 hrs by parasite lactate dehydrogenase assay; type: functional, organism-based; details: W2, 72 h
Plasmodium falciparum [4] = assay: Ratio of chloroquine IC50 to compound IC50 for chloroquine-resistant Plasmodium falciparum W2; type: functional
[5] = Resistance index, ratio of IC50 for chloroquine-resistant Plasmodium falciparum W2 to IC50 for chloroquine-sensitive Plasmodium falciparum D10; type: functional
[6] = Cytotoxicity against human HMEC1 cells after 72 hrs by MTT assay; type: cell-based; details: HMEC-1, 72 h
[7] = Selectivity index, ratio of IC50 for human HMEC1 cells to IC50 for chloroquine-resistant Plasmodium falciparum W2; type: toxicity, cell-based; details: read-out: Ratio IC50
[8] = Lipophilicity, log P of the compound at pH 7.4; type: physicochemical; details: buffer
[9] = n-octanol-KCl distribution coefficient, log D of the compound at pH 7.4; type: physicochemical
[10] = Inhibition of beta-hematin formation assessed as ratio of drug to haemin for 50% inhibition by BHIA assay; type: functional
[11] = Dissociation constant, pKa of the compound; type: physicochemical

| Compound | IC50 (Plasmodium falciparum [1]) | Ratio IC50 (Plasmodium falciparum [2]) | IC50 (Plasmodium falciparum [3]) | Ratio IC50 (Plasmodium falciparum [4]) | Ratio IC50 [5] | IC50 [6] | selectivity ratio [7] | logP ([8]; read-out: logP) | logD [9] | IC50 [10] | pKa [11] | logP [8] |
| --- | --- | --- | --- | --- | --- | --- | --- | --- | --- | --- | --- | --- |
| CN(C)c1ccc(-c2c[nH]c(CNc3ccnc4cc(Cl)ccc34)n2)cc1 | 13.4 nM | 0.82 | 20.9 nM | 13.8 | 1.6 | 6670 nM | 320 | 5.07 | 4.75 | 0.42 molar ratio | – | – |
| Clc1ccc(-c2c[nH]c(CNc3ccnc4cc(Cl)ccc34)n2)cc1 | 25.8 nM | 0.43 | 60.5 nM | 4.77 | 2.3 | 7450 nM | 123 | 5.34 | 5.1 | – | – | – |
| Cc1ccc(-c2c[nH]c(CNc3ccnc4cc(Cl)ccc34)n2)cc1 | 17.2 nM | 0.64 | 40.7 nM | 7.1 | 2.4 | 7770 nM | 191 | 4.95 | 4.66 | – | – | – |
| Clc1ccc2c(NCc3ncc(CN4CCCC4)[nH]3)ccnc2c1 | 399 nM | 0.04 | 3120 nM | 0.05 | 7.8 | – | – | 4.78 | 1.42 | – | – | – |
| Clc1ccc2c(NCc3nc(-c4ccccc4)cs3)ccnc2c1 | 212 nM | 0.07 | 396 nM | 1.09 | 1.9 | – | – | 5.2 | 5.15 | – | 6.45 | – |
| Clc1ccc2c(NCc3nc(-c4ccccc4)c(CN4CCCC4)s3)ccnc2c1 | 19.3 nM | 0.81 | 60.1 nM | 4.93 | 3.1 | 30400 nM | 506 | 6.78 | 6.01 | – | – | – |
| Clc1ccc2c(NCc3nc(-c4ccccc4)c(CN4CCCC4)[nH]3)ccnc2c1 | 22.9 nM | 0.71 | 91.6 nM | 1.67 | 4 | 8660 nM | 95 | 6.35 | 4.22 | – | – | – |
| Clc1ccc2c(NCc3ccc(CN4CCCC4)s3)ccnc2c1 | 12.5 nM | 1.11 | 26.3 nM | 16.43 | 2.1 | 24200 nM | 921 | 4.42 | 2.77 | 1.08 molar ratio | – | – |
| Cc1ccc(-c2nc(CNc3ccnc4cc(Cl)ccc34)[nH]c2CN2CCCC2)cc1 | 7.4 nM | 1.49 | 69.3 nM | 4.17 | 9.4 | 3660 nM | 53 | 6.45 | 4 | – | – | – |
| CCN(CC)CCCC(C)Nc1ccnc2cc(Cl)ccc12 (configuration not stated) [CHLOROQUINE] | – | – | – | – | – | > 38000 nM | – | – | – | 1.94 molar ratio | – | – |
| Clc1ccc2c(NCc3nc4ccccc4[nH]3)ccnc2c1 | 70.6 nM | 0.2 | 256 nM | 1.68 | 3.6 | 2400 nM | 9 | 3.78 | 3.56 | – | – | – |
| CCN(CC)Cc1[nH]c(CNc2ccnc3cc(Cl)ccc23)nc1-c1ccccc1 | 28 nM | 0.58 | 85.8 nM | 1.78 | 3.1 | 9140 nM | 107 | – | – | – | – | – |
| CCN(CC)Cc1[nH]c(CNc2ccnc3cc(Cl)ccc23)nc1-c1ccc(Cl)cc1 | 8.8 nM | 1.25 | 27.6 nM | 10.47 | 3.1 | 2440 nM | 89 | – | – | – | – | – |
| Cn1c(CNc2ccnc3cc(Cl)ccc23)nc(-c2ccccc2)c1CN1CCCC1 | 11.8 nM | 1.18 | 26.5 nM | 16.27 | 2.2 | 28600 nM | 1080 | – | 7.57 | – | – | 9.18 |
| Cn1cc(-c2ccccc2)nc1CNc1ccnc2cc(Cl)ccc12 | 30 nM | 0.46 | 70.3 nM | 6.14 | 2.3 | 17500 nM | 249 | 4.99 | 4.57 | – | – | – |
| CCN(CC)Cc1cnc(CNc2ccnc3cc(Cl)ccc23)[nH]1 | 191 nM | 0.07 | 3800 nM | 0.04 | 19.9 | – | – | – | – | – | – | – |
| Clc1ccc(-c2nc(CNc3ccnc4cc(Cl)ccc34)[nH]c2CN2CCCC2)cc1 | 5.5 nM | 2 | 27.2 nM | 10.62 | 4.9 | 2060 nM | 76 | 6.96 | 4.63 | – | – | – |
| Fc1ccc(-c2nc(CNc3ccnc4cc(Cl)ccc34)[nH]c2CN2CCCC2)cc1 | 25.7 nM | 0.57 | 197 nM | 2.11 | 7.7 | – | – | 6.78 | 4.77 | – | – | – |
| Clc1ccc2c(NCc3nc(-c4ccccc4)c[nH]3)ccnc2c1 | 116 nM | 0.14 | 85.1 nM | 1.78 | 0.7 | 13100 nM | 154 | 4.98 | 4.62 | – | – | – |
| CCN(CC)Cc1ccc(Nc2ccnc3cc(Cl)ccc23)s1 | 1860 nM | 0.08 | 2580 nM | 0.06 | 1.4 | – | – | – | – | – | – | – |
| Clc1ccc2c(Nc3ccc(CN4CCCC4)s3)ccnc2c1 | 2660 nM | 0.01 | 4220 nM | 0.04 | 1.6 | – | – | 3.93 | 2.98 | – | – | – |
| Clc1ccc2c(NCc3ncc[nH]3)ccnc2c1 | 152 nM | 0.11 | 384 nM | 0.39 | 2.5 | – | – | 2.82 | 2.39 | – | – | – |
| Fc1ccc(-c2c[nH]c(CNc3ccnc4cc(Cl)ccc34)n2)cc1 | 52.1 nM | 0.28 | 82.4 nM | 5.05 | 1.6 | 9920 nM | 120 | 5.31 | 4.93 | – | – | – |
| CN(C)c1cccc(-c2c[nH]c(CNc3ccnc4cc(Cl)ccc34)n2)c1 | 32 nM | 0.46 | 53.5 nM | 7.78 | 1.7 | 8970 nM | 168 | 5.86 | 5.48 | – | – | – |
| Clc1ccc2c(NCc3nc(-c4ccc(N5CCCC5)cc4)c[nH]3)ccnc2c1 | 18.2 nM | 0.77 | 35.3 nM | 12.22 | 1.9 | 2430 nM | 69 | 8.87 | 8.53 | – | – | – |
| Clc1ccc2c(NCc3nc(-c4ccccc4)co3)ccnc2c1 | 270 nM | 0.05 | 513 nM | 0.84 | 1.9 | – | – | 4.85 | 4.81 | – | 6.36 | – |
